Our source for the EC50 values is ChEMBL document CHEMBL1135873, “Neuroprotection against ischemic brain injury conferred by a novel nitrate ester” (Bioorg Med Chem Lett, 2002).

Each structure is given as a SMILES string.

The species entered for the assay is Rattus norvegicus. As to the kind of experiment: Effective concentration for relaxation of isolated rat aortic strips, submaximally contracted with phenylephrine at 0.1 uM was determined. It counts as functional. Conditions: Aorta.

In turn, `O=[N+]([O-])OCC(CO[N+](=O)[O-])O[N+](=O)[O-]` [NITROGLYCERIN] gave an EC50 of 1.9 µM.

By EC50 is commonly meant the concentration giving half of the maximal effect.
